The supplement of paper PMC11451515

Tested on: P12-Ichikawa
Experiment: cell viability relative to DMSO control; higher = less cytotoxic
Conditions: 48 h
How it was run: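 Library compounds in DMSO were pin-dosed into 1536-well plates (5 μl) holding NOMO1 or SEM (500 cells/well) or P12-Ichikawa (1000 cells/well) leukemia cells, across an 11-point threefold series of 47 μM to 0.79 nM. Each cell line had been adapted for at least four passages in each medium. CellTiter-Glo One luminescence was read after 48 h at 37°C. Viability is the per-plate percentage relative to DMSO wells, with cell-free wells as background.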

[1] = HPLM + 10% dialyzed FBS, 0.000781 µM
[2] = HPLM + 10% dialyzed FBS, 0.00234 µM
[3] = HPLM + 10% dialyzed FBS, 0.00702 µM
[4] = HPLM + 10% dialyzed FBS, 0.0211 µM
[5] = HPLM + 10% dialyzed FBS, 0.0632 µM
[6] = HPLM + 10% dialyzed FBS, 0.19 µM
[7] = HPLM + 10% dialyzed FBS, 0.569 µM
[8] = HPLM + 10% dialyzed FBS, 1.71 µM
[9] = HPLM + 10% dialyzed FBS, 5.12 µM
[10] = HPLM + 10% dialyzed FBS, 15.4 µM
[11] = HPLM + 10% dialyzed FBS, 46.1 µM
[12] = RPMI 5 mM glucose + 10% FBS, 0.000781 µM
[13] = RPMI 5 mM glucose + 10% FBS, 0.00234 µM
[14] = RPMI 5 mM glucose + 10% FBS, 0.00702 µM
[15] = RPMI 5 mM glucose + 10% FBS, 0.0211 µM
[16] = RPMI 5 mM glucose + 10% FBS, 0.0632 µM
[17] = RPMI 5 mM glucose + 10% FBS, 0.19 µM
[18] = RPMI 5 mM glucose + 10% FBS, 0.569 µM
[19] = RPMI 5 mM glucose + 10% FBS, 1.71 µM
[20] = RPMI 5 mM glucose + 10% FBS, 5.12 µM
[21] = RPMI 5 mM glucose + 10% FBS, 15.4 µM
[22] = RPMI 5 mM glucose + 10% FBS, 46.1 µM
[23] = RPMI 5 mM glucose + 10% dialyzed FBS, 0.000781 µM
[24] = RPMI 5 mM glucose + 10% dialyzed FBS, 0.00234 µM
[25] = RPMI 5 mM glucose + 10% dialyzed FBS, 0.00702 µM
[26] = RPMI 5 mM glucose + 10% dialyzed FBS, 0.0211 µM
[27] = RPMI 5 mM glucose + 10% dialyzed FBS, 0.0632 µM
[28] = RPMI 5 mM glucose + 10% dialyzed FBS, 0.19 µM
[29] = RPMI 5 mM glucose + 10% dialyzed FBS, 0.569 µM
[30] = RPMI 5 mM glucose + 10% dialyzed FBS, 1.71 µM
[31] = RPMI 5 mM glucose + 10% dialyzed FBS, 5.12 µM
[32] = RPMI 5 mM glucose + 10% dialyzed FBS, 15.4 µM
[33] = RPMI 5 mM glucose + 10% dialyzed FBS, 46.1 µM

Row | Compound | cell viability [1] | cell viability [2] | cell viability [3] | cell viability [4] | cell viability [5] | cell viability [6] | cell viability [7] | cell viability [8] | cell viability [9] | cell viability [10] | cell viability [11] | cell viability [12] | cell viability [13] | cell viability [14] | cell viability [15] | cell viability [16] | cell viability [17] | cell viability [18] | cell viability [19] | cell viability [20] | cell viability [21] | cell viability [22] | cell viability [23] | cell viability [24] | cell viability [25] | cell viability [26] | cell viability [27] | cell viability [28] | cell viability [29] | cell viability [30] | cell viability [31] | cell viability [32] | cell viability [33]
1 | C[C@H]1[C@H](O)O[C@@H]2O[C@@]3(C)CC[C@H]4[C@H](C)CC[C@@H]1[C@@]24OO3 | 91.4% | 95% | 99.8% | 98.6% | 91.4% | 97.9% | 101% | 87.6% | 54.7% | 29.4% | 22.5% | 90.1% | 92.9% | 83.4% | 94% | 89.9% | 91.2% | 87.9% | 70.4% | 33.9% | 16.8% | 14.6% | 82.7% | 90.6% | 87.1% | 87.7% | 87.2% | 87% | 84% | 61.6% | 36.5% | 26.2% | 24.3%
2 | Cn1c(=O)c2[nH]cnc2n(C)c1=O | 104% | 113% | 116% | 114% | 111% | 110% | 116% | 109% | 114% | 106% | 104% | 112% | 113% | 115% | 117% | 109% | 115% | 124% | 106% | 112% | 108% | 105% | 115% | 111% | 113% | 107% | 111% | 116% | 107% | 108% | 111% | 99.7% | 94.2%
3 | CCN1\C=C(C(O)=O)/C(=O)C2=C1C=C(N3CCN(C)CC3)C(=C2)F | 117% | 118% | 114% | 107% | 116% | 113% | 108% | 105% | 90.7% | 77.5% | 71.5% | 110% | 116% | 117% | 108% | 117% | 120% | 108% | 112% | 84% | 73.9% | 69.1% | 110% | 121% | 112% | 121% | 109% | 123% | 108% | 104% | 83.1% | 69.1% | 61.9%
4 | COC1=CC(=CC=C1)C2=CC=C(NC(=O)/C3=C(/CCC3)C(O)=O)C(=C2)F | 111% | 113% | 116% | 110% | 110% | 113% | 113% | 106% | 100% | 80.1% | 57.6% | 116% | 116% | 118% | 113% | 109% | 111% | 105% | 105% | 96.6% | 79.6% | 51.7% | 109% | 120% | 114% | 105% | 110% | 110% | 113% | 106% | 92.2% | 69.6% | 37.4%
5 | O=C1CCC[C@@H]2[C@H]3CCC[N+]4([O-])CCC[C@@H](CN12)[C@@H]34 (stereo not given in full) | 88.3% | 89.2% | 100% | 102% | 98.8% | 92.9% | 105% | 102% | 89.5% | 98.6% | 97.7% | 83.5% | 80.8% | 89.7% | 95.1% | 95.5% | 97.2% | 87.7% | 94.7% | 87.3% | 99.9% | 88% | 78.2% | 84.9% | 94.1% | 94% | 93% | 83.5% | 81.4% | 90.8% | 90% | 89.6% | 89.2%
6 | C[C@H](NC(=O)Cc1cc(F)cc(F)c1)C(=O)N[C@@H]1C(=O)N(C)c2ccccc2-c2ccccc21 | 105% | 118% | 113% | 116% | 113% | 38.4% | 109% | 99.5% | 6.06% | 3.41% | 1.45% | 110% | 111% | 128% | 128% | 116% | 125% | 119% | 122% | 100% | 3.68% | 2.54% | 97.7% | 111% | 112% | 113% | 118% | 117% | 113% | 115% | 84.8% | 3.93% | 1.82%
7 | COc1ccc(C(=O)CC(=O)c2ccc(C(C)(C)C)cc2)cc1 | 105% | 112% | 113% | 110% | 120% | 116% | 119% | 113% | 118% | 108% | 97.2% | 101% | 97.6% | 104% | 106% | 116% | 111% | 103% | 109% | 112% | 106% | 90.7% | 98.1% | 107% | 111% | 112% | 110% | 119% | 117% | 113% | 120% | 110% | 91.1%
8 | C/C(=C\c1csc(C)n1)[C@@H]1C[C@@H]2O[C@@H]2CCC[C@H](C)[C@H](O)[C@@H](C)C(=O)C(C)(C)[C@@H](O)CC(=O)O1 | 37.2% | 25.2% | 25% | 26.8% | 27.1% | 24.6% | 23.9% | 25.2% | 21.1% | 21.5% | 22.6% | 28.8% | 14.8% | 19.1% | 20.3% | 20% | 20.6% | 21.6% | 20.8% | 17.4% | 18.1% | 19.3% | 67.2% | 27.9% | 33.6% | 27.2% | 34.7% | 33.1% | 33.7% | 31.4% | 29.1% | 31.3% | 35.9%
9 | COc1cc(NC(=O)c2ccc(-c3ccc(Cl)cc3)o2)cc(OC)c1 | 93.8% | 111% | 110% | 112% | 115% | 109% | 111% | 111% | 101% | 99.2% | 104% | 97.4% | 105% | 100% | 115% | 108% | 115% | 108% | 117% | 101% | 99.5% | 95.5% | 84% | 107% | 114% | 113% | 112% | 107% | 115% | 104% | 101% | 94.3% | 104%
10 | N#CC1(c2ccc(NC(=O)c3cccnc3NCc3ccncc3)cc2)CCCC1 | 120% | 123% | 113% | 116% | 116% | 110% | 108% | 104% | 106% | 77.8% | 102% | 119% | 108% | 123% | 107% | 122% | 111% | 113% | 109% | 102% | 110% | 98.9% | 118% | 122% | 115% | 109% | 113% | 114% | 103% | 113% | 103% | 96.3% | 90.8%
11 | COc1nccc(-c2c(-c3ccc(F)cc3)ncn2C2CCC(O)CC2)n1 (stereo not given) | 121% | 117% | 112% | 108% | 118% | 115% | 103% | 105% | 101% | 98.3% | 75.1% | 113% | 120% | 122% | 116% | 111% | 110% | 117% | 112% | 110% | 106% | 86.3% | 126% | 121% | 114% | 117% | 120% | 123% | 118% | 115% | 115% | 115% | 41.2%
12 | O=C(c1ccc(/C=C/c2n[nH]c3ccccc23)cc1)N1CCNCC1 | 94.8% | 101% | 98% | 99.4% | 111% | 102% | 108% | 9.55% | 13.2% | 12.2% | 19.6% | 92.6% | 90.8% | 100% | 91.3% | 101% | 107% | 102% | 13.5% | 16.9% | 16.3% | 19.5% | 91.2% | 95.8% | 86.5% | 104% | 99.7% | 98.3% | 100% | 25.3% | 29.6% | 25.8% | 31.2%
13 | CC(=O)OCC(=O)[C@@]12OC(C)(C)O[C@@H]1C[C@H]3[C@@H]4C[C@H](F)C/5=C/C(=O)/C=C\[C@]5(C)[C@@]4(F)[C@@H](O)C[C@]23C | 107% | 119% | 111% | 117% | 110% | 94.7% | 76.7% | 74.5% | 71.6% | 74.5% | 72.4% | 106% | 128% | 119% | 115% | 115% | 84.2% | 68.5% | 70.8% | 62.1% | 64.2% | 67.5% | 117% | 107% | 114% | 107% | 87.8% | 84.4% | 62.8% | 57.6% | 55.1% | 54.7% | 56.9%
14 | CCOc1cc(/C=C2/C(=O)N(c3ccccc3)N=C2C)cc(Cl)c1OCC(=O)OC | 85.7% | 90.9% | 87.7% | 93.7% | 84.6% | 89.9% | 91.1% | 98.7% | 88.3% | 84.6% | 83.3% | 79.4% | 89.3% | 77.2% | 85.7% | 81% | 92.8% | 89.1% | 86.6% | 89.8% | 80.9% | 89.6% | 90.1% | 85.7% | 92% | 88% | 83% | 88.5% | 85% | 86.9% | 86.9% | 90.7% | 86.5%
15 | CC(C)C(=O)Nc1ncc(-c2cc(C(F)F)nn2-c2c(Cl)cccc2Cl)s1 | 122% | 122% | 117% | 120% | 126% | 136% | 129% | 131% | 134% | 132% | 63.5% |  |  |  |  |  |  |  |  |  |  |  |  |  |  |  |  |  |  |  |  |  | 
16 | CC(C[N+](C)(C)C)OC(N)=O (stereo not given) | 109% | 121% | 116% | 122% | 114% | 113% | 120% | 118% | 111% | 110% | 102% |  |  |  |  |  |  |  |  |  |  |  | 122% | 119% | 122% | 125% | 122% | 119% | 114% | 128% | 122% | 109% | 102%
